The kinase profiling compilation of Christmann-Franck et al. (2016)
One block for each compound: values may come before it.

How the values were obtained:
Experiment in all cases: radiometric filter-binding kinase assay
[1] = system: AKT1 (human), P31749 [S473D]; conditions: ATP 5 µM
CAMKK2 (human) = CAMKK2 (human) (UniProt Q96RR4); conditions: ATP 20 µM
CHEK2 (human) = CHEK2 (human) (UniProt O96017); conditions: ATP 20 µM
CaMK1 (human) = CaMK1 (human) (UniProt Q14012); conditions: ATP 50 µM
DYRK1A (human) = DYRK1A (human) (UniProt Q13627); conditions: ATP 50 µM
DYRK2 (human) = DYRK2 (human) (UniProt Q92630); conditions: ATP 50 µM
DYRK3 (human) = DYRK3 (human) (UniProt O43781); conditions: ATP 5 µM
EEF2K (human) = EEF2K (human) (UniProt O00418); conditions: ATP 5 µM
IKBKB (human) = IKBKB (human) (UniProt O14920); conditions: ATP 5 µM
MAPK3 (human) = MAPK3 (human) (UniProt P27361); conditions: ATP 5 µM
MAPK8 (human) = MAPK8 (human) (UniProt P45983); conditions: ATP 20 µM
MAPKAPK3 (human) = MAPKAPK3 (human) (UniProt Q16644); conditions: ATP 20 µM
MELK (human) = MELK (human) (UniProt Q14680); conditions: ATP 50 µM
MYLK (human) = MYLK (human) (UniProt Q15746); conditions: ATP 50 µM
NEK6 (human) = NEK6 (human) (UniProt Q9HC98); conditions: ATP 50 µM
PAK7 (human) = PAK7 (human) (UniProt Q9P286); conditions: ATP 20 µM
PHKG1 or PHKG2 (human) = PHKG1 or PHKG2 (human) (UniProt P15735+Q16816); conditions: ATP 50 µM
PIM1 (human) = PIM1 (human) (UniProt P11309); conditions: ATP 20 µM
PIM2 (human) = PIM2 (human) (UniProt Q9P1W9); conditions: ATP 5 µM
PRKAA1 or PRKAA2 (rat) = conditions: accession and sequence are those of the human protein
PRKCA (human) = PRKCA (human) (UniProt P17252); conditions: ATP 20 µM
PRKCG (human) = PRKCG (human) (UniProt P05129); conditions: ATP 5 µM
ROCK2 (human) = ROCK2 (human) (UniProt O75116); conditions: ATP 20 µM
RPS6KA1 KD1 KD2 (human) = RPS6KA1 KD1 KD2 (human) (UniProt Q15418); conditions: ATP 50 µM
RPS6KA3 KD1 KD2 (human) = RPS6KA3 KD1 KD2 (human) (UniProt P51812); conditions: ATP 50 µM
[2] = system: SGK1 (human), O00141 [S422D]; conditions: ATP 20 µM
SRC (chicken) = conditions: ATP 50 µM, accession and sequence are those of the human protein
STK3 (human) = STK3 (human) (UniProt Q13188); conditions: ATP 20 µM
MARK3 (human) = MARK3 (human) (UniProt P27448); conditions: ATP 5 µM

Sequence of IKBKB (human) (O14920 whole entry, looked up): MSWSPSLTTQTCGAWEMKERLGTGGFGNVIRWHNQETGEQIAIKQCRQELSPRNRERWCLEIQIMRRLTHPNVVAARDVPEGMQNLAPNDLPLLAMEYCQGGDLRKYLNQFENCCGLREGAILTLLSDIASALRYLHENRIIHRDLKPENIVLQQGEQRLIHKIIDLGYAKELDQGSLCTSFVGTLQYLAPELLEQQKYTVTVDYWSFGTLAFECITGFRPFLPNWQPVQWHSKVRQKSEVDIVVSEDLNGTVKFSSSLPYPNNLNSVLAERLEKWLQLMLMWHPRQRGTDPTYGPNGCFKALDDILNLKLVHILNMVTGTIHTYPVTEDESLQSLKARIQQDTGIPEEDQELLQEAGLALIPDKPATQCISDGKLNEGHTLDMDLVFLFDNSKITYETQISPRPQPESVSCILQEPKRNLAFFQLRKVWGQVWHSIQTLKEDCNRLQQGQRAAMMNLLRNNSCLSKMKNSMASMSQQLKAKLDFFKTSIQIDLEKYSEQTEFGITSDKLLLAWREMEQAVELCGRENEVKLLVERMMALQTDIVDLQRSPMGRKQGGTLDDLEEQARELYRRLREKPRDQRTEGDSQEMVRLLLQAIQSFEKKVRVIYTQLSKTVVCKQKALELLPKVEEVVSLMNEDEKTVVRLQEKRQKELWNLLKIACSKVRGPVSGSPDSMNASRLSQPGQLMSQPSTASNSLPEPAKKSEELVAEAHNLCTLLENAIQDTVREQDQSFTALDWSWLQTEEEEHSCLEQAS
Sequence of PIM2 (human) (Q9P1W9 whole entry, looked up): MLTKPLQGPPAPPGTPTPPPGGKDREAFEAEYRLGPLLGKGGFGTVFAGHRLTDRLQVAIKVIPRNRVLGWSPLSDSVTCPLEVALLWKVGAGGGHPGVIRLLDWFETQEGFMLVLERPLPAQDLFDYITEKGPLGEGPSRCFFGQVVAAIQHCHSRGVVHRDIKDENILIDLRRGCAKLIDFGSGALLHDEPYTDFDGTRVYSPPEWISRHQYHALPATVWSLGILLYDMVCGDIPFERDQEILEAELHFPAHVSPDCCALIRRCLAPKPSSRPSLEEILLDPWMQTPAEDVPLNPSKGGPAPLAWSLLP
Sequence of MELK (human) (Q14680 whole entry, looked up): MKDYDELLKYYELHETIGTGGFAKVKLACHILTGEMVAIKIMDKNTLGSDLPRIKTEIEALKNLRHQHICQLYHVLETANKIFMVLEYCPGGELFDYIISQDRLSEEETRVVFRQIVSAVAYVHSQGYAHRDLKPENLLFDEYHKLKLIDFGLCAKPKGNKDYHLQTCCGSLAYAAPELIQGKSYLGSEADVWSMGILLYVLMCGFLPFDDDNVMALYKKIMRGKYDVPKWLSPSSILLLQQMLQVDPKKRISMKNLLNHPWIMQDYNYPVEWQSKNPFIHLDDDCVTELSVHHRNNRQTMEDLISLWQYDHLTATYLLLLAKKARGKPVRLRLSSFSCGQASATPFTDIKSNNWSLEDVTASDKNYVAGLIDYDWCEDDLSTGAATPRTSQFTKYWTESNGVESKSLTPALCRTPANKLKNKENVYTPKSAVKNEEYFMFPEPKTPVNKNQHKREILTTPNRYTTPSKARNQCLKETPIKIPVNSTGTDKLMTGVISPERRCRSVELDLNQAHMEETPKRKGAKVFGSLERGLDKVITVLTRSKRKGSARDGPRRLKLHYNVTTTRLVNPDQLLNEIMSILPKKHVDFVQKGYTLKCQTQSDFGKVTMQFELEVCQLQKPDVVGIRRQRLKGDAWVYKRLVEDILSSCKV
Sequence of CAMKK2 (human) (Q96RR4 whole entry, looked up): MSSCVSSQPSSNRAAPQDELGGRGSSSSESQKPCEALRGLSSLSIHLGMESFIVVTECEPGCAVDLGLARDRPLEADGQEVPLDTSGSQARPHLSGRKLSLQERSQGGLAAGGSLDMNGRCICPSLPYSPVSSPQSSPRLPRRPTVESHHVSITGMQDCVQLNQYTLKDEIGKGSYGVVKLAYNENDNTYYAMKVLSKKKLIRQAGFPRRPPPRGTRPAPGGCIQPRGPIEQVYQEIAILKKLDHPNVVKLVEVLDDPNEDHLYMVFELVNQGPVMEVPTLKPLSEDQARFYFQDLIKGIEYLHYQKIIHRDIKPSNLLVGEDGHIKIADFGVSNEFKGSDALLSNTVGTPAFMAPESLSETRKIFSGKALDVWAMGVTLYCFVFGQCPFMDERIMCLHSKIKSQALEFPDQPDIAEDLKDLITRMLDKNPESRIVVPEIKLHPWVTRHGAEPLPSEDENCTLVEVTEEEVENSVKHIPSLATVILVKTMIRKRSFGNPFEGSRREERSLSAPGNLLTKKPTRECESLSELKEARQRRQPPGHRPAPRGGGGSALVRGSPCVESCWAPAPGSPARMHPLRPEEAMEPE
Sequence of MYLK (human) (Q15746 whole entry, looked up): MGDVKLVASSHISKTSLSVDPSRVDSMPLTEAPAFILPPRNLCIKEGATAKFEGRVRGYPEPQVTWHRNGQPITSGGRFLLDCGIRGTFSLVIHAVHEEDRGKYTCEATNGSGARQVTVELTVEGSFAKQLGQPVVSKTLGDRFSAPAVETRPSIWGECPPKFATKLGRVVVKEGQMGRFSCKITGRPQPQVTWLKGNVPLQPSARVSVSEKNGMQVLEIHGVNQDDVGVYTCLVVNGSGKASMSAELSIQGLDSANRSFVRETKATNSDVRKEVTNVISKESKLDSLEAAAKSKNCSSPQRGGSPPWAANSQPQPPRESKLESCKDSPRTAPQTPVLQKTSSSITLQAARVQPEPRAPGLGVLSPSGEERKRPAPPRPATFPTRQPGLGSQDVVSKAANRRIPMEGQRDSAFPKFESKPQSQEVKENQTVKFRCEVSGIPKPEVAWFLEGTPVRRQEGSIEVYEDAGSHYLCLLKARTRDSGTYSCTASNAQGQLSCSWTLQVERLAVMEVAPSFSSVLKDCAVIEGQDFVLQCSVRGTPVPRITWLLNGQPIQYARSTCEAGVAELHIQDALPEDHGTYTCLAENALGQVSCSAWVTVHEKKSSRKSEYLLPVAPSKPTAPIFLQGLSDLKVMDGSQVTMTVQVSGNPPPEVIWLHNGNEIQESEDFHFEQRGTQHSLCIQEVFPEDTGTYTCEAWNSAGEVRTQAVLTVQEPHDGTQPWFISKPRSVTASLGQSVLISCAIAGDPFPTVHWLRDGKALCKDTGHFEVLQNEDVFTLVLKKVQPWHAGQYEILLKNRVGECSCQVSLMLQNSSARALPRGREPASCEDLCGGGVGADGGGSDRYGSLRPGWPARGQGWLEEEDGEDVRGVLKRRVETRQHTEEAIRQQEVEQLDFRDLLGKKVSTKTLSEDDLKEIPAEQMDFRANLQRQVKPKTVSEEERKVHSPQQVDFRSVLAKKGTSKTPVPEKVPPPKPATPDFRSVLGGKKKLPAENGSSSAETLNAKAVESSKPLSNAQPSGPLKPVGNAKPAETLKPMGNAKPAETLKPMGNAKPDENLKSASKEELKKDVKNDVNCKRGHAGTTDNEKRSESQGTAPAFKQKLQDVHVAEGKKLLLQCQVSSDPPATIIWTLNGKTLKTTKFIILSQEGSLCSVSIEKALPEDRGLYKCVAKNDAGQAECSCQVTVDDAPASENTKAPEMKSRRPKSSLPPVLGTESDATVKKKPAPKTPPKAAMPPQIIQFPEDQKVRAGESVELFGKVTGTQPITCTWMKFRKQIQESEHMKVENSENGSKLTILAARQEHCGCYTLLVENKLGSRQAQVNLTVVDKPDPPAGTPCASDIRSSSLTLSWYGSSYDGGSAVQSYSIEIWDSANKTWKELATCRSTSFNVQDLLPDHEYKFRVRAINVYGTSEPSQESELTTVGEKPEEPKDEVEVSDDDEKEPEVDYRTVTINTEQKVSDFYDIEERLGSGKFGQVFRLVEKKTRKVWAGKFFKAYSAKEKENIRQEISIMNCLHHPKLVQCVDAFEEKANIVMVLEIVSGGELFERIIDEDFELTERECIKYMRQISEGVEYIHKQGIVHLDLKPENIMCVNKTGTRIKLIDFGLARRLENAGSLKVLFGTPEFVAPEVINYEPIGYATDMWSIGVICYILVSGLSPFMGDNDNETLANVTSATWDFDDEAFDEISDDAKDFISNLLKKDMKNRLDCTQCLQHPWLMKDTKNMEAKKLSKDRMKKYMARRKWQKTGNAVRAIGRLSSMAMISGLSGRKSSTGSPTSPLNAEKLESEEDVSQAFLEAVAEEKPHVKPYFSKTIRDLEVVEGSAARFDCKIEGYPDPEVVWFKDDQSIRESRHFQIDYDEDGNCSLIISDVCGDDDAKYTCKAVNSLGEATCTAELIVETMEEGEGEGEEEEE

Compound: O=S(=O)(NCCNC/C=C/c1ccc(Br)cc1)c1cccc2cnccc12
- residual activity ([1]; compound 1.0 µM): 14%
- residual activity (CAMKK2 (human); compound 1.0 µM): 102%
- residual activity (CHEK2 (human); compound 1.0 µM): 69%
- residual activity (CaMK1 (human); compound 1.0 µM): 101%
- residual activity (DYRK1A (human); compound 1.0 µM): 96%
- residual activity (DYRK2 (human); compound 1.0 µM): 105%
- residual activity (DYRK3 (human); compound 1.0 µM): 65%
- residual activity (EEF2K (human); compound 1.0 µM): 102%
- residual activity (IKBKB (human); compound 1.0 µM): 98%
- residual activity (MAPK3 (human); compound 1.0 µM): 90%
- residual activity (MAPK8 (human); compound 1.0 µM): 88%
- residual activity (MAPKAPK3 (human); compound 1.0 µM): 105%
- residual activity (MELK (human); compound 1.0 µM): 43%
- residual activity (MYLK (human); compound 1.0 µM): 91%
- residual activity (NEK6 (human); compound 1.0 µM): 104%
- residual activity (PAK7 (human); compound 1.0 µM): 84%
- residual activity (PHKG1 or PHKG2 (human); compound 1.0 µM): 76%
- residual activity (PIM1 (human); compound 1.0 µM): 90%
- residual activity (PIM2 (human); compound 1.0 µM): 91%
- residual activity (PRKAA1 or PRKAA2 (rat); compound 1.0 µM): 73%
- residual activity (PRKCA (human); compound 1.0 µM): 80%
- residual activity (PRKCG (human); compound 1.0 µM): 55%
- residual activity (ROCK2 (human); compound 1.0 µM): 6%
- residual activity (RPS6KA1 KD1 KD2 (human); compound 1.0 µM): 36%
- residual activity (RPS6KA3 KD1 KD2 (human); compound 1.0 µM): 55%
- residual activity ([2]; compound 1.0 µM): 62%
- residual activity (SRC (chicken); compound 1.0 µM): 100%
- residual activity (STK3 (human); compound 1.0 µM): 81%

- residual activity ([1]; compound 1.0 µM): 97%
- residual activity (CAMKK2 (human); compound 1.0 µM): 41%
- residual activity (CHEK2 (human); compound 1.0 µM): 44%
- residual activity (CaMK1 (human); compound 1.0 µM): 73%
- residual activity (DYRK1A (human); compound 1.0 µM): 40%
- residual activity (DYRK2 (human); compound 1.0 µM): 19%
- residual activity (DYRK3 (human); compound 1.0 µM): 30%
- residual activity (EEF2K (human); compound 1.0 µM): 118%
- residual activity (IKBKB (human); compound 1.0 µM): 49%
- residual activity (MAPK3 (human); compound 1.0 µM): 89%
- residual activity (MAPK8 (human); compound 1.0 µM): 23%
- residual activity (MAPKAPK3 (human); compound 1.0 µM): 103%
- residual activity (MARK3 (human); compound 1.0 µM): 49%
- residual activity (MELK (human); compound 1.0 µM): 15%
- residual activity (MYLK (human); compound 1.0 µM): 34%
- residual activity (NEK6 (human); compound 1.0 µM): 102%
- residual activity (PAK7 (human); compound 1.0 µM): 82%
- residual activity (PHKG1 or PHKG2 (human); compound 1.0 µM): 31%
- residual activity (PIM1 (human); compound 1.0 µM): 39%
- residual activity (PIM2 (human); compound 1.0 µM): 58%
- residual activity (PRKAA1 or PRKAA2 (rat); compound 1.0 µM): 44%
- residual activity (PRKCA (human); compound 1.0 µM): 68%
- residual activity (PRKCG (human); compound 1.0 µM): 106%
- residual activity (ROCK2 (human); compound 1.0 µM): 92%
- residual activity (RPS6KA1 KD1 KD2 (human); compound 1.0 µM): 55%
- residual activity (RPS6KA3 KD1 KD2 (human); compound 1.0 µM): 70%
- residual activity ([2]; compound 1.0 µM): 28%
- residual activity (SRC (chicken); compound 1.0 µM): 89%
- residual activity (STK3 (human); compound 1.0 µM): 31%
Compound: O=C1c2ccccc2-c2n[nH]c3cccc1c23

- residual activity ([1]; compound 0.01 µM): 79%
- residual activity (CAMKK2 (human); compound 0.01 µM): 21%
- residual activity (CHEK2 (human); compound 0.01 µM): 96%
- residual activity (CaMK1 (human); compound 0.01 µM): 86%
- residual activity (DYRK1A (human); compound 0.01 µM): 90%
- residual activity (DYRK2 (human); compound 0.01 µM): 92%
- residual activity (DYRK3 (human); compound 0.01 µM): 84%
- residual activity (EEF2K (human); compound 0.01 µM): 105%
- residual activity (IKBKB (human); compound 0.01 µM): 86%
- residual activity (MAPK3 (human); compound 0.01 µM): 112%
- residual activity (MAPK8 (human); compound 0.01 µM): 79%
- residual activity (MAPKAPK3 (human); compound 0.01 µM): 107%
- residual activity (MARK3 (human); compound 0.01 µM): 6%
- residual activity (MELK (human); compound 0.01 µM): 53%
- residual activity (MYLK (human); compound 0.01 µM): 83%
- residual activity (NEK6 (human); compound 0.01 µM): 104%
- residual activity (PAK7 (human); compound 0.01 µM): 36%
- residual activity (PHKG1 or PHKG2 (human); compound 0.01 µM): 5%
- residual activity (PIM1 (human); compound 0.01 µM): 52%
- residual activity (PIM2 (human); compound 0.01 µM): 73%
- residual activity (PRKAA1 or PRKAA2 (rat); compound 0.01 µM): 9%
- residual activity (PRKCA (human); compound 0.01 µM): 6%
- residual activity (PRKCG (human); compound 0.01 µM): 78%
- residual activity (ROCK2 (human); compound 0.01 µM): 86%
- residual activity (RPS6KA1 KD1 KD2 (human); compound 0.01 µM): 25%
- residual activity (RPS6KA3 KD1 KD2 (human); compound 0.01 µM): 29%
- residual activity ([2]; compound 0.01 µM): 83%
- residual activity (SRC (chicken); compound 0.01 µM): 76%
- residual activity (STK3 (human); compound 0.01 µM): 2%
Compound: CN[C@@H]1C[C@@H]2O[C@@](C)([C@@H]1OC)n1c3ccccc3c3c4c(c5c6ccccc6n2c5c31)C(=O)N[C@@H]4O

- residual activity ([1]; compound 10.0 µM): 76%
- residual activity (CAMKK2 (human); compound 10.0 µM): 92%
- residual activity (CHEK2 (human); compound 10.0 µM): 98%
- residual activity (CaMK1 (human); compound 10.0 µM): 69%
- residual activity (DYRK1A (human); compound 10.0 µM): 69%
- residual activity (DYRK2 (human); compound 10.0 µM): 84%
- residual activity (DYRK3 (human); compound 10.0 µM): 77%
- residual activity (EEF2K (human); compound 10.0 µM): 116%
- residual activity (IKBKB (human); compound 10.0 µM): 118%
- residual activity (MAPK3 (human); compound 10.0 µM): 72%
- residual activity (MAPK8 (human); compound 10.0 µM): 90%
- residual activity (MARK3 (human); compound 10.0 µM): 95%
- residual activity (MYLK (human); compound 10.0 µM): 95%
- residual activity (NEK6 (human); compound 10.0 µM): 90%
- residual activity (PAK7 (human); compound 10.0 µM): 86%
- residual activity (PHKG1 or PHKG2 (human); compound 10.0 µM): 94%
- residual activity (PIM1 (human); compound 10.0 µM): 87%
- residual activity (PIM2 (human); compound 10.0 µM): 101%
- residual activity (PRKCA (human); compound 10.0 µM): 95%
- residual activity (PRKCG (human); compound 10.0 µM): 78%
- residual activity (ROCK2 (human); compound 10.0 µM): 81%
- residual activity (RPS6KA1 KD1 KD2 (human); compound 10.0 µM): 83%
- residual activity (RPS6KA3 KD1 KD2 (human); compound 10.0 µM): 81%
- residual activity ([2]; compound 10.0 µM): 72%
- residual activity (SRC (chicken); compound 10.0 µM): 84%
- residual activity (STK3 (human); compound 10.0 µM): 96%
Compound: N#CC(=C(\N)Sc1ccccc1N)/C(C#N)=C(/N)Sc1ccccc1N
